Drawing on US8263555B2 (Alcon Research, Ltd., priority 2007, dated 2012), this text covers Ki, Emax and production of prostaglandins for four molecules.

Structures are written as SMILES. Values joined by “and” are separate entries in the source; they are usually repeats but may differ in a detail not shown here. Equal entries are not always repeated.

Assay [1] has as its target T1, BK B2-Receptor in h-CM cells (Homo sapiens, UniProt P30411).
T1 construct: we discovered and pharmacologically characterized B2-receptor proteins in h-TM, h-CM and h-NPE cells; endogenous in cells; host or cells: primary human ciliary muscle (h-CM) cells
T1 sequence (P30411 1-391): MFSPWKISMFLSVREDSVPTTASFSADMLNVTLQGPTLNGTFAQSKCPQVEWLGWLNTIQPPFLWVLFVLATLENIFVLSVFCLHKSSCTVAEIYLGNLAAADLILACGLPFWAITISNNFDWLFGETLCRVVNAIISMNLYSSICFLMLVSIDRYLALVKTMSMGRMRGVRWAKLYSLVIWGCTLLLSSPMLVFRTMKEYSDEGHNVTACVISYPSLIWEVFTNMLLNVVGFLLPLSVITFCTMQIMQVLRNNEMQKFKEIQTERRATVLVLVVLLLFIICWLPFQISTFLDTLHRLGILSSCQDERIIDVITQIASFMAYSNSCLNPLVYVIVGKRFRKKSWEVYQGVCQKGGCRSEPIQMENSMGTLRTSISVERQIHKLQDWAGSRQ
The assay is described as follows: Antagonism of BK-induced [Ca^2+]i mobilization in h-CM cells. The format is cell-based. Particulars: read-out: Antagonist Potency (Ki; nM) vs BK (10 nM) in [Ca^2+]i Mobilization Assay, mean ± SEM or individual experiments. Here is the method: (§1) Opthalmol. Vis. Res. 47: 4001-4019, 2006; Sharif et al., J. Ocular Pharmacol. Ther. 22: 291-309, 2006).
(§2) On the day of the experiment, one vial of FLIPR Calcium Assay Kit dye is re-suspended in 50 mL of a FLIPR buffer consisting of Hank's Balanced Salt Solution (HBSS), 20 mM HEPES, and 2.5 mM probenecid, pH 7.4. Cells are loaded with the calcium-sensitive dye by addition of an equal volume (50 μL) to each well of the 96-well plate and incubated with dye for 1 h at 23° C. After this time, the test compound plate and cell plate are placed in the FLIPR instrument. At the beginning of an experimental run, a signal test is performed to check the basal fluorescence signal from the dye-loaded cells and the uniformity of the signal across the plate. The basal fluorescence is adjusted between 8000-12000 counts by modifying the exposure time, the camera F-stop, or the laser power. Instrument settings for a typical assay are the following: laser power 0.3-0.6 W, camera F-stop F/2, and exposure time 0.4 sec.
(§3) Fluorescence data are collected in real-time at 1.0 sec intervals for the first 60 secs and at 6.0 sec intervals for an additional 120 secs. […] The data are then analyzed using an automated, iterative, sigmoidal curve-fitting computer program to obtain the potency and intrinsic activities of the test agents as previously described (Sharif et al. J. Pharmacol. Exp. Ther. 286: 1094-1102, 1998; Sharif et al. Invest. Opthalmol. Vis. Sci. 39:2562-2571, 1998; Kelly et al. J. Pharmacol. Exp. Ther. 304: 238-245, 2003). The sources of materials and reagents for such assays can be found in the references cited above.

The target of assay [2] is T2, BK B2-Receptor in h-TM cells (Homo sapiens, UniProt P30411).
T2 construct: we discovered and pharmacologically characterized B2-receptor proteins in h-TM, h-CM and h-NPE cells; endogenous in cells; host or cells: primary human trabecular meshwork (h-TM) cells
T2 sequence (P30411 1-391): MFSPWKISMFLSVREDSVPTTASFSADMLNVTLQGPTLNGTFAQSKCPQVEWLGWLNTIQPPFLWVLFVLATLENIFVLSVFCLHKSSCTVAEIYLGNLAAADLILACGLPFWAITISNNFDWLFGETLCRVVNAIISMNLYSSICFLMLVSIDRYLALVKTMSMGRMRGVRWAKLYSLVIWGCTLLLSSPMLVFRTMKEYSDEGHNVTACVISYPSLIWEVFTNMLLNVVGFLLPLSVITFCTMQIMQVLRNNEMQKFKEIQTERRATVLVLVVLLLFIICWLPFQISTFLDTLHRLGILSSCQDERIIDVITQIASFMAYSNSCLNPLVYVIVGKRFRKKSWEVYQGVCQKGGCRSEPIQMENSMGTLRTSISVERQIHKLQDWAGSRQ
The assay is described as follows: Antagonism of BK-induced [Ca^2+]i mobilization in h-TM cells. The format is cell-based. As to conditions: read-out: Antagonist Potency (Ki; nM) vs BK (10 nM) in [Ca^2+]i Mobilization Assay, mean ± SEM or individual experiments. Here is the method:
as §1
as §2, with “Instrument settings for a typical assay are the following: laser power 0.3-0.6 W, camera F-stop F/2, and exposure time 0.4 sec.” left out
Fluorescence data are collected in real-time at 1.0 sec intervals for the first 60 secs and at 6.0 sec intervals for an additional 120 secs. […] The data are then analyzed using an automated, iterative, sigmoidal curve-fitting computer program to obtain the potency and intrinsic activities of the test agents as previously described (Sharif et al. J. Pharmacol. Exp. Ther. 286: 1094-1102, 1998; Sharif et al. Invest. Opthalmol. Vis. Sci. 39:2562-2571, 1998; Kelly et al. J. Pharmacol. Exp. Ther. 304: 238-245, 2003). […]

For assay [3], the target named is T3, BK B2-Receptor in h-NPE cells (Homo sapiens, UniProt P30411).
T3 construct: we discovered and pharmacologically characterized B2-receptor proteins in h-TM, h-CM and h-NPE cells; endogenous in cells; host or cells: immortalized human non-pigmented ciliary epithelial (h-NPE) cells
T3 sequence (P30411 1-391): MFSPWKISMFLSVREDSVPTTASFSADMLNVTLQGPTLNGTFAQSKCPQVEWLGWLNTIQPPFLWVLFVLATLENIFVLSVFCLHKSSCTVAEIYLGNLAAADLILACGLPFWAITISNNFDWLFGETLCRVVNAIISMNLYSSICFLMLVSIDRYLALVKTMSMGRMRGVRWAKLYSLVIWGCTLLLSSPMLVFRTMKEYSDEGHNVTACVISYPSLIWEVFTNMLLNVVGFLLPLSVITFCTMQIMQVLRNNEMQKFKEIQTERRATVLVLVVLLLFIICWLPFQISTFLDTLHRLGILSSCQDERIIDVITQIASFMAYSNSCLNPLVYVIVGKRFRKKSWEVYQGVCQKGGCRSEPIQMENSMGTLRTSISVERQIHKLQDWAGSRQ
The assay is described as follows: Antagonism of BK-induced [Ca^2+]i mobilization in immortalized h-NPE cells. The format is cell-based. Particulars: read-out: Antagonist Potency (Ki; nM) vs BK (10 nM) in [Ca^2+]i Mobilization Assay, mean ± SEM or individual experiments. Here is the method: as §1, §2, §3

The target in assay [4] is T4, B2-receptors in h-NPE cells (Homo sapiens, UniProt P30411).
T4 construct: we discovered and pharmacologically characterized B2-receptor proteins in h-TM, h-CM and h-NPE cells; endogenous in cells; host or cells: immortalized human non-pigmented ciliary epithelial (h-NPE) cells
T4 sequence (P30411 1-391): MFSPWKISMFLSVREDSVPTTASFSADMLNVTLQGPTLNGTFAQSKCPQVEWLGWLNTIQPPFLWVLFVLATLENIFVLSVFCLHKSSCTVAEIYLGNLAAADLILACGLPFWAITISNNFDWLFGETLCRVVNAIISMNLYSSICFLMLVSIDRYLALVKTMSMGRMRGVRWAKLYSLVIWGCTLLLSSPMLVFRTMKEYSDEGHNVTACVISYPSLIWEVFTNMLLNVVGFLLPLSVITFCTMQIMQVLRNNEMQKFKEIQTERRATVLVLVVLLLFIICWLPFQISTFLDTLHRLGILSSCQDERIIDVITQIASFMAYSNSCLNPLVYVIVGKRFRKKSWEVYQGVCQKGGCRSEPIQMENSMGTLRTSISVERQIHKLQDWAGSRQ
The assay is described as follows: BK- and BK-related peptide-induced [Ca^2+]i mobilization in h-NPE cells (agonist potency). The format is cell-based. As to conditions: BK = 100%, read-out: Intrinsic Activity (Emax, % max relative to BK).

The subject of the next assay is h-CM cells. In words: Production and release of endogenous prostaglandins from h-CM cells. The format is cell-based, human. Particulars: BK 1 μM, relative to baseline and to fluprostenol. Here is the method:
A functional assay to discover BK agonists may involve the measurement of prostaglandin E2 (PGE2) production (Wiernas et al. Brit. J. Pharmacol. 123: 1127-1137, 1998), for instance, in cells isolated from human or animal ocular or non-ocular tissues, or cells expressing recombinant (preferably human) BK receptors. Cells expressing BK receptors are seeded in 48-wells culture plates and allowed to reach confluence. After this time the cells are rinsed twice with 0.5 mL of phosphate buffered saline and incubated with the test agent made up in 0.5 mL Dulbeco's modified Eagle's medium (DMEM)/F-12 for 1 h at 37° C. […]
After this incubation, all tubes are placed in an ice-bath and 1 ml cold precipitating reagent supplied in the kit is added to the tubes, the content mixed and incubated for 25 min at 4° C. […] The supernatants of all tubes are decanted as specified in the kit instructions and the RIA samples analyzed on a gamma-counter. The levels of PGE2 generated by the test agent are then quantified in comparison with the PGE2-standard curve. Dose-response data for the test agent are constructed and the potency and intrinsic activity determined as described above for other assays. […]

Turning to `CC(=O)Nc1ccc(/C=C/C(=O)NCC(=O)N(C)c2ccc(Cl)c(COc3cccc4ccc(C)nc34)c2Cl)cn1` [FR-173657], the Ki was 35 nM and 11 nM in assay [1]; 121 nM and 193 nM in assay [2]; 787 nM and 788 nM in assay [3].
With `CSCC[C@H](N)C(=O)N[C@@H](CCCCN)C(=O)N[C@@H](CCCNC(=N)N)C(=O)N1CCC[C@H]1C(=O)N1CCC[C@H]1C(=O)NCC(=O)N[C@@H](Cc1ccccc1)C(=O)N[C@@H](CO)C(=O)N1CCC[C@H]1C(=O)N[C@@H](Cc1ccccc1)C(=O)N[C@@H](CCCNC(=N)N)C(=O)O` [Met-Lys-BK], the Emax in assay [4] lay in the range of 70 to 77%.
Take `Cc1nc2c(OCc3c(Cl)ccc(N(C)C(=O)CNC(=O)/C=C/c4ccc(C(=O)N(C)C)cc4)c3Cl)cccn2c1Br` [FR-167344]: the Ki was 13 nM and 4 nM in assay [1]; 69 nM and 19 nM in assay [2]; 393 nM and 223 nM in assay [3].
With `O=C(O)CCC/C=C\C[C@@H]1[C@@H](/C=C/[C@@H](O)COc2cccc(C(F)(F)F)c2)[C@H](O)C[C@@H]1O` (racemic) [fluprostenol], the production of prostaglandins result in the assay on h-CM cells was “stimulation of production and release of endogenous prostaglandins”.
